Source: ChEMBL document CHEMBL4828731, “Synthesis, structure-activity relationships and molecular docking studies of phenyldiazenyl sulfonamides as aromatase inhibitors” (Eur J Med Chem, 2021)
Each block holds one compound with its values, some of them ahead of it. Activity calls are given as the source filed them. The calls are words filed in the database; no cut-off is given here.

What was measured:
[1] = molecular target: T1, Aromatase (Homo sapiens, UniProt P11511); assay: Inhibition of human aromatase assessed as reduction in fluorescence intensity using 7-methoxy-4-trifluoromethyl coumarin as a substrate at 1 uM by fluorimetric assay relative to control
T1 sequence (P11511 whole entry): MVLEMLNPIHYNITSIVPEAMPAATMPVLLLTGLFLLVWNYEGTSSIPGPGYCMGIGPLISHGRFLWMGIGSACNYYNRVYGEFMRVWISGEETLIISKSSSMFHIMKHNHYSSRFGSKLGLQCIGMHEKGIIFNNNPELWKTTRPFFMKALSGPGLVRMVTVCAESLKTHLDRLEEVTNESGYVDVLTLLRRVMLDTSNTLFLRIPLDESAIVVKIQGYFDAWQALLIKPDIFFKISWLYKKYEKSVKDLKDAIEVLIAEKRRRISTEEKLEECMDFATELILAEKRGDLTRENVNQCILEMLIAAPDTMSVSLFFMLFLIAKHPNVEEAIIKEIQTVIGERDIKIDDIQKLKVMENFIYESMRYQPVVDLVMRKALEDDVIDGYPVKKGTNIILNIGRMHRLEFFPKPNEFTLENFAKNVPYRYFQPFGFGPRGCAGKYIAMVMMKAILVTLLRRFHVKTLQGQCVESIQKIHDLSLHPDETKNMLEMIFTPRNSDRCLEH

[2] = molecular target: T1, Aromatase; assay: Inhibition of human aromatase assessed as reduction in fluorescence intensity using 7-methoxy-4-trifluoromethyl coumarin as a substrate by fluorimetric assay
[3] = tested on: MCF7; assay: Cytotoxicity against human MCF7 cells assessed as reduction in cell metabolic activity up to 50 uM incubated for 24 hrs by MTT assay relative to control; type: functional; design: scale not given: the % may be the effect or the level left; details: dose microM <=50
[4] = tested on: MCF7; assay: Cytotoxicity against human MCF7 cells assessed as release of LDH up to 250 uM measured after 24 hrs by lactate dehydrogenase assay; type: functional, cell-based; details: dose microM <=250, time 24.0 hrs
[5] = tested on: MCF7; assay: Cytotoxicity against human MCF7 cells assessed as reduction in cell metabolic activity up to 50 uM incubated for 48 hrs by MTT assay relative to control; type: functional; design: scale not given: the % may be the effect or the level left; details: dose microM <=50
[6] = tested on: MCF7; assay: Cytotoxicity against human MCF7 cells assessed as reduction in cell metabolic activity incubated for 72 hrs by MTT assay; type: functional, cell-based
[7] = tested on: HFF-1; assay: Cytotoxicity against human HFF-1 clls assessed as reduction in cell viability at 10 to 100 uM measured after 72 hrs by MTT assay; type: cell-based; details: hff-1, 72 h, dose 10-100 µM
[8] = Selectivity index, ratio of IC50 for cytotoxicity against human HFF-1 cells to IC50 for cytotoxicity against human MCF7 cells measured after 24 hrs by MTT assay; type: toxicity, cell-based; details: HFF-1 cells and MCF7 cells, read-out: Selectivity Index
[9] = molecular target: T1, Aromatase; assay: Potency index, ratio of resveratrol IC50 to test compound IC50 for Inhibition of human aromatase assessed as reduction in fluorescence intensity using 7-methoxy-4-trifluoromethyl coumarin as a substrate by fluorimetric assay
[10] = tested on: MCF7; assay: Cytotoxicity against human MCF7 cells assessed as reduction in cell metabolic activity at 100 uM incubated for 24 hrs by MTT assay relative to control; type: functional; design: scale not given: the % may be the effect or the level left
[11] = tested on: MCF7; assay: Cytotoxicity against human MCF7 cells assessed as fold increase in release of LDH at 50 uM measured after 24 hrs by lactate dehydrogenase assay relative to control; type: functional
[12] = tested on: MCF7; assay: Induction of apoptosis in human MCF7 cells assessed as cells in apoptotic stage at 100 uM measured after 24 hrs by Annexin V-APC/PI staining based flow cytometry analysis (Rvb= 7.3%); type: functional
[13] = tested on: MCF7; assay: Induction of apoptosis in human MCF7 cells assessed as cells in apoptotic stage at 250 uM measured after 24 hrs by Annexin V-APC/PI staining based flow cytometry analysis (Rvb= 7.3%); type: functional
[14] = tested on: MCF7; assay: Induction of apoptosis in human MCF7 cells assessed as increase in necrotic cells at 10 to 250 uM measured after 24 hrs by Annexin V-APC/PI staining based flow cytometry analysis relative to control; type: functional, cell-based; details: dose 10-250 µM
[15] = tested on: MCF7; assay: Cell cycle arrest in human MCF7 cells assessed as reduction in cells in S phase measured after 72 hrs by propidium iodide staining based flow cytometry analysis; type: functional
[16] = tested on: MCF7; assay: Cell cycle arrest in human MCF7 cells assessed as increase in cells in G1 phase measured after 72 hrs by propidium iodide staining based flow cytometry analysis; type: functional
[17] = tested on: HFF-1; assay: Cytotoxicity against human HFF-1 clls assessed as reduction in cell viability at 250 uM measured after 72 hrs by MTT assay; type: cell-based; details: hff-1, 72 h
[18] = Selectivity index, ratio of IC50 for cytotoxicity against human HFF-1 cells to IC50 for cytotoxicity against human MCF7 cells measured after 48 hrs by MTT assay; type: toxicity, cell-based; details: HFF-1 cells and MCF7 cells, read-out: Selectivity Index
[19] = Selectivity index, ratio of IC50 for cytotoxicity against human HFF-1 cells to IC50 for cytotoxicity against human MCF7 cells measured after 72 hrs by MTT assay; type: toxicity, cell-based; details: HFF-1 cells and MCF7 cells, read-out: Selectivity Index
[20] = tested on: MCF7; assay: Cytotoxicity against human MCF7 cells assessed as reduction in cell metabolic activity at 250 uM incubated for 72 hrs by MTT assay relative to control; type: functional; design: scale not given: the % may be the effect or the level left
[21] = molecular target: T1, Aromatase; assay: Inhibition of human aromatase in T47D measured after 24 hrs by ELISA

SMILES: O=S(=O)(Cc1ccccc1)Nc1ccc(/N=N/c2ccccc2)cc1
- inhibition at 1 µM [1]: < 20%

SMILES: CS(=O)(=O)Nc1ccc(/N=N/c2ccccc2)cc1
- inhibition at 1 µM [1]: < 20%

SMILES: Cc1ccc(S(=O)(=O)N(Cc2nc3ccccc3[nH]2)c2ccc(/N=N/c3ccccc3)cc2)cc1[N+](=O)[O-]
- inhibition at 1 µM [1]: < 20%

SMILES: O=S(=O)(c1ccccc1)N(Cc1nc2ccccc2[nH]1)c1ccc(/N=N/c2ccccc2)cc1
- inhibition at 1 µM [1]: < 20%

SMILES: CCS(=O)(=O)Nc1ccc(/N=N/c2ccccc2)cc1
- inhibition at 1 µM [1]: < 20%

SMILES: Oc1ccc(/C=C/c2cc(O)cc(O)c2)cc1 [RESVERATROL]
- Activity [10]: 78.2%
- Activity [4]: inactive
- Activity [6]: Dose-Dependent Effect

SMILES: COc1ccc(S(=O)(=O)N(Cc2nc3ccccc3[nH]2)c2ccc(/N=N/c3ccccc3)cc2)c(OC)c1
- inhibition at 1 µM [1]: 50%
- IC50 [2]: 5.7 µM
- Ratio IC50 [9]: 14
- Activity [3]: 20%
- Activity [4]: inactive
- Activity [5]: 60%
- Activity [20]: 134.2%
- Activity [7]: Non-Toxic
- selectivity ratio at 24 h [8]: > 2.25

SMILES: COc1cnc(NS(=O)(=O)c2ccc(N/C=C\C(=O)c3cc4ccccc4oc3=O)cc2)nc1
- IC50 [21]: 6 µM

Continued, in another order:

- inhibition at 1 µM [1]: < 20%
SMILES: CC(=O)Nc1ccc(S(=O)(=O)Nc2ccc(/N=N/c3ccccc3)cc2)cc1

- inhibition at 1 µM [1]: < 20%
SMILES: O=S(=O)(Nc1ccc(/N=N/c2ccccc2)cc1)c1ccc(Cl)s1

- inhibition at 1 µM [1]: < 20%
SMILES: O=[N+]([O-])c1cccc(S(=O)(=O)Nc2ccc(/N=N/c3ccccc3)cc2)c1

- inhibition at 1 µM [1]: < 20%
SMILES: O=S(=O)(Nc1ccc(/N=N/c2ccccc2)cc1)c1ccccc1

- IC50 [2]: 7.9 µM
SMILES: N#Cc1ccc(S(=O)(=O)Nc2ccc(/N=N/c3ccccc3)cc2)cc1
- Activity [3]: 20%
- Activity [4]: inactive
- Activity [5]: 60%
- Activity [6]: Dose-Dependent Effect
- Activity [7]: Non-Toxic
- selectivity ratio at 24 h [8]: > 1.6

- inhibition at 1 µM [1]: < 20%
SMILES: N#Cc1ccc(S(=O)(=O)Nc2ccc(/N=N/c3ccccc3)cc2)c(Cl)c1

- IC50 [2]: 1.6 µM
SMILES: COc1ccc(S(=O)(=O)Nc2ccc(/N=N/c3ccccc3)cc2)c(OC)c1
- Ratio IC50 [9]: 50
- Activity [3]: 20%
- Activity [10]: 47.4%
- fold change (FC) [11]: 2.5
- Activity [12]: 19.7%
- Activity [13]: 14.7%
- Activity [14]: Active
- Activity [5]: 60%
- Activity [6]: Dose-Dependent Effect
- Activity [15]: Dose-Dependent Effect
- Activity [16]: Dose-Dependent Effect
- Activity [7]: Non-Toxic
- Activity [17]: Toxic
- selectivity ratio at 24 h [8]: 2.12
- selectivity ratio at 48 h [18]: 3.19
- selectivity ratio at 72 h [19]: 3.74

- inhibition at 1 µM [1]: < 20%
SMILES: Cc1ccc(S(=O)(=O)Nc2ccc(/N=N/c3ccccc3)cc2)cc1[N+](=O)[O-]
